Assay results published in patent EP0527889B1, “QUINOLIZINONE TYPE COMPOUNDS” (priority 1990, dated 1991).
Structures can show the parent of a compound that is named as a salt.

Experiments:
[1] = tested on: Streptococcus pyrogenes 2548 INDUC; assay: In vitro antibacterial activity, MIC by agar dilution; type: cell-based; conditions: BHI agar, 35-37°C, 20-24 hours, unit assumed
In short: (§1)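 Agar dilution; ~10^4 CFU/spot by replicator (1:100 dilution, 1:10 for slow growers); 35–37°C, ~20–24 h. MIC = lowest conc. with no growth (slight haze or sparse colonies allowed) vs drug-free BHI control; ciprofloxacin control.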

Escherichia coli SS = assay: as above; type: cell-based; conditions: BHI agar, 35-37°C, 20-24 hours, unit assumed
In short: as §1

[2] = tested on: Staphylococcus aureus NCTC 10649; assay: as above; type: cell-based; conditions: BHI agar, 35-37°C, 20-24 hours, unit assumed
In short: as §1

Escherichia coli H560 = assay: as above; type: cell-based; conditions: BHI agar, 35-37°C, 20-24 hours, unit assumed
In short: as §1

[3] = tested on: Streptococcus bovis A5169; assay: as above; type: cell-based; conditions: BHI agar, 35-37°C, 20-24 hours, unit assumed
In short: as §1

Escherichia coli JUHL [4] = assay: as above; type: cell-based; conditions: BHI agar, 35-37°C, 20-24 hours, unit assumed
In short: as §1

[5] = tested on: Staphylococcus aureus 1775; assay: as above; type: cell-based; conditions: BHI agar, 35-37°C, 20-24 hours, unit assumed
In short: as §1

[6] = tested on: Pseudomonas aeruginosa 2862; assay: as above; type: cell-based; conditions: BHI agar, 35-37°C, 20-24 hours, unit assumed
In short: as §1

[7] = tested on: Micrococcus luteus ATCC 4698; assay: as above; type: cell-based; conditions: BHI agar, 35-37°C, 20-24 hours, unit assumed
In short: as §1

[8] = tested on: Staphylococcus aureus CMX 553; assay: as above; type: cell-based; conditions: BHI agar, 35-37°C, 20-24 hours, unit assumed
In short: as §1

[9] = tested on: Staphylococcus epidermidis 3519; assay: as above; type: cell-based; conditions: BHI agar, 35-37°C, 20-24 hours, unit assumed
In short: as §1

[10] = tested on: Micrococcus luteus ATCC 9341; assay: as above; type: cell-based; conditions: BHI agar, 35-37°C, 20-24 hours, unit assumed
In short: as §1

[11] = tested on: Staphylococcus aureus ATCC 6538P; assay: as above; type: cell-based; conditions: BHI agar, 35-37°C, 20-24 hours, unit assumed
In short: as §1

[12] = tested on: Pseudomonas aeruginosa A5007; assay: as above; type: cell-based; conditions: BHI agar, 35-37°C, 20-24 hours, unit assumed
In short: as §1

[13] = tested on: Streptococcus pyrogenes CONST; assay: as above; type: cell-based; conditions: BHI agar, 35-37°C, 20-24 hours, unit assumed
In short: as §1

[14] = tested on: Pseudomonas aeruginosa 5263; assay: as above; type: cell-based; conditions: BHI agar, 35-37°C, 20-24 hours, unit assumed
In short: as §1

[15] = tested on: Enterobacter aerogenes ATCC 13048; assay: as above; type: cell-based; conditions: BHI agar, 35-37°C, 20-24 hours, unit assumed
In short: as §1

Pseudomonas cepacia 296I = assay: as above; type: cell-based; conditions: BHI agar, 35-37°C, 20-24 hours, unit assumed
In short: as §1

[16] = tested on: Acinetobacter calcoaceticus CMX 669; assay: as above; type: cell-based; conditions: BHI agar, 35-37°C, 20-24 hours, unit assumed
In short: as §1

[17] = tested on: Streptococcus pyrogenes EES61; assay: as above; type: cell-based; conditions: BHI agar, 35-37°C, 20-24 hours, unit assumed
In short: as §1

[18] = tested on: Pseudomonas aeruginosa K799/61; assay: as above; type: cell-based; conditions: BHI agar, 35-37°C, 20-24 hours, unit assumed
In short: as §1

Escherichia coli KNK 437 = assay: as above; type: cell-based; conditions: BHI agar, 35-37°C, 20-24 hours, unit assumed
In short: as §1

[19] = tested on: Staphylococcus aureus A5177; assay: as above; type: cell-based; conditions: BHI agar, 35-37°C, 20-24 hours, unit assumed
In short: as §1

[20] = tested on: Streptococcus agalactaciae CMX 508; assay: as above; type: cell-based; conditions: BHI agar, 35-37°C, 20-24 hours, unit assumed
In short: as §1

[21] = tested on: Providencia stuartii CMX 640; assay: as above; type: cell-based; conditions: BHI agar, 35-37°C, 20-24 hours, unit assumed
In short: as §1

[22] = tested on: Staphylococcus aureus A-5278; assay: as above; type: cell-based; conditions: BHI agar, 35-37°C, 20-24 hours, unit assumed
In short: as §1

Escherichia coli DC-2 = assay: as above; type: cell-based; conditions: BHI agar, 35-37°C, 20-24 hours, unit assumed
In short: as §1

[23] = tested on: Klebsiella pneumoniae ATCC 8045; assay: as above; type: cell-based; conditions: BHI agar, 35-37°C, 20-24 hours, unit assumed
In short: as §1

[24] = tested on: Pseudomonas aeruginosa BMH10; assay: as above; type: cell-based; conditions: BHI agar, 35-37°C, 20-24 hours, unit assumed
In short: as §1

[25] = tested on: Staphylococcus aureus 642A; assay: as above; type: cell-based; conditions: BHI agar, 35-37°C, 20-24 hours, unit assumed
In short: as §1

[26] = tested on: Enterococcus faecium ATCC 8043; assay: as above; type: cell-based; conditions: BHI agar, 35-37°C, 20-24 hours, unit assumed
In short: as §1

[27] = tested on: Pseudomonas aeruginosa K799/WT; assay: as above; type: cell-based; conditions: BHI agar, 35-37°C, 20-24 hours, unit assumed
In short: as §1

[28] = tested on: Staphylococcus aureus NCTC 10649; assay: In vivo antibacterial activity in mice (protection from lethal intraperitoneal infection); conditions: NCTC10649, 144 h, S. aureus, CF-1 female mice infected intraperitoneally with 100 times the LD50, treated at 1 and 5 hr after infection, cumulative mortalities on the sixth day
Method: (§2) The in vivo antibacterial activity of the compounds of the present invention was determined as follows: Aqueous solutions of the test compounds were prepared by dissolving the compound in distilled water, except for the compounds of examples 169 and 170 which were dissolved in a solution of 2% DMSO in distilled water.
(§3) After 18 hr incubation, a culture of Staphylococcus aureus NCTC 10649 was serially diluted by using 10-fold dilutions in 5% (w/v) hog gastric mucin. Cultures (0.5 mL) in a dilution from 10^-1 to 10^-8 were injected intraperitoneally into CF-1 female mice weighing approximately 20g. The LD50 (median lethal dose) for the test organism was calculated from the cumulative mortalities on the sixth day by the using the Reed and Muench procedure (Reed, L.J., and H. Muench, Amer. J. Hygiene, 27, 493 (1938)).
(§4) The above 18 hr culture was diluted in 5% (w/v) hog gastric mucin to obtain 100 times the LD50, and 0.5 mL was injected intraperitoneally into mice. The mice were treated subcutaneously (sc) or orally (po) with a specific amount of the test compound divided equally to be administered at 1 and 5 hr after infection. A group of 10 animals each for at least three dose levels was thus treated, and the deaths were recorded daily for 6 days. Ten mice were left untreated as infection control. ED50 values were calculated from the cumulative mortalities on the sixth day after infection by using the trimmed version of the Logit method ( Hamilton, M.A., R.C. Russo, and R.V. Thurston, Environ. Sci. Technol. 11, 714 (1977)).

Escherichia coli JUHL [29] = assay: as above; conditions: 144 h, E. coli JUHL, mice infected intraperitoneally, treated at 1 and 5 hr after infection, cumulative mortalities on the sixth day
Method: as §2, §3, §4
The LD50 for Escherichia coli JUHL was determined in a manner similar to that above for S. aureus. The 18 hr cultures of this organism were also prepared for po and sc testing in mice, from which ED50 values were calculated. Positive controls were run with temafloxacin as the test compound, for which ED50 values were also calculated.

CCC[C@H](N)C(=O)NC1CCN(c2nc3c(-c4ccc(F)cc4F)cc(C(=O)O)c(=O)n3cc2F)C1 (stereo partly drawn) [Example 166, 9-(2,4-Difluorophenyl)-3-fluoro-2-(3-(N-(S)-norvalyl)aminopyrrolidin-1-yl)-6H-6-oxopyrido[1,2-a]pyrimidine-7-carboxylic acid hydrochloride salt]
MIC values [1]: 1.56 µg/mL | MIC values (Escherichia coli SS): 0.05 µg/mL | MIC values [2]: 0.39 µg/mL | MIC values (Escherichia coli H560): 0.78 µg/mL | MIC values [3]: 25 µg/mL | MIC values (Escherichia coli JUHL [4]): 0.78 µg/mL | MIC values [5]: > 100 µg/mL | MIC values [6]: > 100 µg/mL | MIC values [7]: 25 µg/mL | MIC values [8]: 3.1 µg/mL | MIC values [9]: 0.78 µg/mL | MIC values [10]: 50 µg/mL | MIC values [11]: 0.39 µg/mL | MIC values [12]: 6.2 µg/mL | MIC values [13]: 1.56 µg/mL | MIC values [14]: > 100 µg/mL | MIC values [15]: 3.1 µg/mL | MIC values (Pseudomonas cepacia 296I): > 100 µg/mL | MIC values [16]: 3.1 µg/mL | MIC values [17]: 1.56 µg/mL | MIC values [18]: 0.39 µg/mL | MIC values (Escherichia coli KNK 437): 6.2 µg/mL | MIC values [19]: 1.56 µg/mL | MIC values [20]: 3.1 µg/mL | MIC values [21]: > 100 µg/mL | MIC values [22]: 1.56 µg/mL | MIC values (Escherichia coli DC-2): 12.5 µg/mL | MIC values [23]: 1.56 µg/mL | MIC values [24]: 3.1 µg/mL | MIC values [25]: 1.56 µg/mL | MIC values [26]: 12.5 µg/mL | MIC values [27]: 6.2 µg/mL | ED50 ([28]; po): > 24 mg/kg | ED50 ([28]; sc): 8 mg/kg | ED50 (Escherichia coli JUHL [29]; po): 25 mg/kg | ED50 (Escherichia coli JUHL [29]; sc): < 2.5 mg/kg

C[C@H](N)C(=O)NC1CCN(c2nc3c(-c4ccc(F)cc4F)cc(C(=O)O)c(=O)n3cc2F)C1 (stereo partly drawn) [Example 167, 2-(3-(N-(S)-Alanyl)aminopyrrolidin-1-yl)-9-(2,4-difluorophenyl)-3-fluoro-6H-6-oxopyrido[1,2-a]pyrimidine-7-carboxylic acid hydrochloride]
MIC values [1]: 1.56 µg/mL | MIC values (Escherichia coli SS): 0.05 µg/mL | MIC values [2]: 0.78 µg/mL | MIC values (Escherichia coli H560): 1.56 µg/mL | MIC values [3]: 12.5 µg/mL | MIC values (Escherichia coli JUHL [4]): 1.56 µg/mL | MIC values [5]: > 100 µg/mL | MIC values [6]: > 100 µg/mL | MIC values [7]: 50 µg/mL | MIC values [8]: 6.2 µg/mL | MIC values [9]: 3.1 µg/mL | MIC values [10]: 50 µg/mL | MIC values [11]: 0.78 µg/mL | MIC values [12]: 6.2 µg/mL | MIC values [13]: 3.1 µg/mL | MIC values [14]: > 100 µg/mL | MIC values [15]: 3.1 µg/mL | MIC values (Pseudomonas cepacia 296I): 100 µg/mL | MIC values [16]: 12.5 µg/mL | MIC values [17]: 6.2 µg/mL | MIC values [18]: 1.56 µg/mL | MIC values (Escherichia coli KNK 437): 25 µg/mL | MIC values [19]: 3.1 µg/mL | MIC values [20]: 6.2 µg/mL | MIC values [21]: 100 µg/mL | MIC values [22]: 1.56 µg/mL | MIC values (Escherichia coli DC-2): 25 µg/mL | MIC values [23]: 3.1 µg/mL | MIC values [24]: 12.5 µg/mL | MIC values [25]: 3.1 µg/mL | MIC values [26]: 12.5 µg/mL | MIC values [27]: 6.2 µg/mL | ED50 ([28]; po): 14.4 mg/kg | ED50 ([28]; sc): 2.7 mg/kg | ED50 (Escherichia coli JUHL [29]; po): 16.6 mg/kg | ED50 (Escherichia coli JUHL [29]; sc): < 2.5 mg/kg
